Several values for one entry are separate records, joined by “and”; a condition that tells them apart may be missing. Equal values may be shown once.
Key:
[1] = tested on: TNB (trinitrobenzenesulfonic acid)-induced ulcerative colitis; test: Rats with TNB-induced ulcerative colitis, macroscopic and microscopic examination of intestine, colon and cecum; type: in vivo, rat; design: key to Overall degree of inflammation / Mucosal inflammation and ulceration / Submucosal inflammation / Full thickness inflammation: − = No inflammation (normal); ± = Very minimal mucosal inflammation; + = Mild; +2 = Moderate; +3 = Severe; conditions: for Full thickness inflammation / Mucosal inflammation and ulceration / Overall degree of inflammation / Submucosal inflammation: one rat per row; for activity against intestinal bowel disease: compared to the known compound 5ASA
Description: Rats with TNB (trinitrobenzenesulfonic acid)-induced ulcerative colitis were used as an animal model. 28 rats were randomly grouped (A, B, C1, C2, D1 and D2). Group A is used as positive control and each of the other three groups received a predetermined dose of compounds under testing (see Table 3). Animals were fasted for one night before taking the TNB solution. All animals received a solution (0.25 ml) of TNB in methylcelullose solution (50% methylcellulose in absolute ethanol) containing 20 mg of TNB. The TNB solution was administered by intracolonic administration using a syringe and rubber canula. The canula was inserted into the lumen of the colon via the anus. The cannula was advanced so that its tip was 8 cm from the anus. […] Group A took 0.5 ml of the suspension containing 2.5 mg of methylcellulose solution twice daily. • 2. […] The treatments were given for eight days, and on the 9th day the animals were sacrificed and opened along their abdomen for evaluation. The animals were subjected to the following testing • 1. Physical testing, as looking at the weight, […], general health, etc. • 2. Looking at the intestine before opening, colouration, thickness, etc. 3. Dissecting the intestine the colon and the cecum and examining them macroscopically and microscopically.

[2] = upon oral administration; cited from earlier work
[3] = Group D-1: 12 mg compound 5 orally twice daily for eight days
[4] = Group D-2: 18 mg compound 5 orally twice daily for eight days
[5] = Group C-1: 18 mg compound 9 orally twice daily for eight days
[6] = Group C-2: 28 mg compound 9 orally twice daily for eight days
[7] = Group B: 5 mg 5ASA orally twice daily for eight days

Nc1ccc(-c2nc3cc(CC(=O)O)ccc3o2)cc1 [compound 5, 4-aminophenylbenzoxazole-5-acetic acid]
Full thickness inflammation [1, 3]: + (3×) and − (2×)
Mucosal inflammation and ulceration [1, 3]: + (4×) and −
Overall degree of inflammation [1, 3]: +1 (3×) and ± and −
Submucosal inflammation [1, 3]: + (3×) and − (2×)
Full thickness inflammation [1, 4]: −
Mucosal inflammation and ulceration [1, 4]: +
Overall degree of inflammation [1, 4]: +1
Submucosal inflammation [1, 4]: +
activity against intestinal bowel disease [1]: significantly higher activity

O=C(O)Cc1ccc2oc(-c3ccc(N=Nc4ccc(O)c(C(=O)O)c4)cc3)nc2c1 [compound 9, 2-Hydroxy-5-[4-(benzoxazol-2-yl-5-acetic acid)phenylazo]benzoic acid]
Full thickness inflammation [1, 5]: −
Mucosal inflammation and ulceration [1, 5]: − and + (5×)
Overall degree of inflammation [1, 5]: − and ± (3×) and +1 (2×)
Submucosal inflammation [1, 5]: − (3×) and ± and + (2×)
Full thickness inflammation [1, 6]: −
Mucosal inflammation and ulceration [1, 6]: +
Overall degree of inflammation [1, 6]: ± (2×) and +1
Submucosal inflammation [1, 6]: ± (2×) and +
activity against intestinal bowel disease [1]: significantly higher activity

O=C(O)c1cc(N=Nc2ccc(S(=O)(=O)Nc3ccccn3)cc2)ccc1O [SS, 2-Hydroxy-5-[4-(2-pyridylsulfamoyl)phenylazo]benzoic acid]
fraction of a given dose absorbed from the small intestine [2]: about one-third

Nc1ccc(O)c(C(=O)O)c1 [5ASA, 5-aminosalicylic acid, reference compound]
Full thickness inflammation [1, 7]: +
Mucosal inflammation and ulceration [1, 7]: +
Overall degree of inflammation [1, 7]: +2 (4×) and +3 and +1
Submucosal inflammation [1, 7]: +
